The target in test [1] is human CB2 receptors (Homo sapiens (Human), UniProt P34972). As to the kind of experiment: functional cAMP assay, CHO cells expressing human CB2. It counts as cell-based. The protocol:
(§1) CHO cells expressing human CB1 or CB2 receptors are seeded 17-24 hours prior to the experiment 50.000 cells per well in a black 96 well plate with flat clear bottom (Corning Costar #3904) in DMEM (Invitrogen No. 31331), 1×HT supplement, with 10% fetal calf serum and incubated at 5% CO2 and 37° C. in a humidified incubator. The growth medium was exchanged with Krebs Ringer Bicarbonate buffer with 1 mM IBMX and incubated at 30° C. for 30 min. Compounds were added to a final assay volume of 100 μl and incubated for 30 min at 30° C. Using the cAMP-Nano-TRF detection kit the assay (Roche Diagnostics) was stopped by the addition of 50 μl lysis reagent (Tris, NaCl, 1.5% Triton X100, 2.5% NP40, 10% NaN3) and 50 μl detection solutions (20 μM mAb Alexa700-cAMP 1:1, and 48 μM Ruthenium-2-AHA-cAMP) and shaken for 2 h at room temperature. The time-resolved energy transfer is measured by a TRF reader (Evotec Technologies GmbH), equipped with a ND:YAG laser as excitation source. The plate is measured twice with the excitation at 355 nm and at the emission with a delay of 100 ns and a gate of 100 ns, total exposure time 10 s at 730 (bandwidth 30 nm) or 645 nm (bandwidth 75 nm), respectively. The FRET signal is calculated as follows: FRET=T730-Alexa730-P(T645-B645) with P=Ru730-B730/Ru645-B645, where T730 is the test well measured at 730 nM, T645 is the test well measured at 645 nm, B730 and B645 are the buffer controls at 730 nm and 645 nm, respectively. cAMP content is determined from the function of a standard curve spanning from 10 μM to 0.13 nM cAMP.
(§2) EC50 values were determined using Activity Base analysis (ID Business Solution, Limited). The EC50 values for a wide range of cannabinoid agonists generated from this assay were in agreement with the values published in the scientific literature.

The target in test [2] is human CB1 receptors (Homo sapiens (Human), UniProt P21554). The test can be described thus: functional cAMP assay, CHO cells expressing human CB1. It counts as cell-based. The procedure: as §1, §2
Chain of human CB1 receptors (P21554 whole entry): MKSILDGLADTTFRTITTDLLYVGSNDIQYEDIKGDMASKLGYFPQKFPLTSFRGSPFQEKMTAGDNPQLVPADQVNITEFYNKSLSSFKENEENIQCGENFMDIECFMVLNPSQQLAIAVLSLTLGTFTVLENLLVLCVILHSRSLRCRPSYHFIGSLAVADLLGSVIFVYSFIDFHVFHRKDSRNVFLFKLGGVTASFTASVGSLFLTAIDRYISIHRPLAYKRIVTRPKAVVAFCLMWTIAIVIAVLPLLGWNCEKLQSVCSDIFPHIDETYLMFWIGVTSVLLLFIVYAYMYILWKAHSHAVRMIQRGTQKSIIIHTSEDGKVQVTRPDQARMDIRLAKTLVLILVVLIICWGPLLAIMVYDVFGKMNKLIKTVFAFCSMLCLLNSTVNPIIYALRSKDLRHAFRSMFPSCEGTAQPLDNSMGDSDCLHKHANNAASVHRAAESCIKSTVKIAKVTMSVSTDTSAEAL
(In general: Cyclic AMP is a second messenger, typically raised through Gs and lowered through Gi signalling.)

The mark [3] stands for this setting: functional cAMP assay, CHO cells expressing human CB1; read-out: Human CB1 EC50.
Where [4] appears, read: Human CB1 EC50 (uM), functional cAMP assay, CHO cells expressing human CB1.
The mark [5] stands for this setting: read-out: Human CB1 EC50; functional cAMP assay, CHO cells expressing human CB1.

The structures appear in SMILES notation. Like-named read-outs stand apart in the source and are kept apart here.

Chain of human CB2 receptors (P34972 whole entry): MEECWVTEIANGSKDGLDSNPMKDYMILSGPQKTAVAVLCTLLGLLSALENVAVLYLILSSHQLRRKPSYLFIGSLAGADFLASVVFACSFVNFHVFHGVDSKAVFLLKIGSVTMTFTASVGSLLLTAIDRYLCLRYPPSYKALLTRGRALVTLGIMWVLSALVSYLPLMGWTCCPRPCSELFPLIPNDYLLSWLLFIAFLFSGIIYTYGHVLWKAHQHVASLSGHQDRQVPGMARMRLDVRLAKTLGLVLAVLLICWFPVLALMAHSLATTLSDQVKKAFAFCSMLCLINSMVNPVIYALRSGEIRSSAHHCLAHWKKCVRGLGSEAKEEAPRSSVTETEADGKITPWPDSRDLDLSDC

As to `C[C@H](Oc1cc(C(=O)NC2(CC(N)=O)CS(=O)(=O)C2)ncc1C1(F)COC1)C(F)(F)F` [Example 265, N-[3-(2-amino-2-oxoethyl)-1,1-dioxothietan-3-yl]-5-(3-fluorooxetan-3-yl)-4-[(2S)-1,1,1-trifluoropropan-2-yl]oxypyridine-2-carboxamide], the EC50 (as a rule, the concentration at which the effect is half-maximal) in test [1] (read-out: Human CB2 EC50) is 0.102 µM; in test [2] (setting [3]) it was more than 10 µM.
On to `Cc1cnc(C2(NC(=O)c3cc(OCC(F)(F)F)c(C4CC4)cn3)CCOCC2)s1` [Example 153, 5-cyclopropyl-N-[4-(5-methyl-1,3-thiazol-2-yl)oxan-4-yl]-4-(2,2,2-trifluoroethoxy)pyridine-2-carboxamide], for which the results for the EC50 in test [1] (Human CB2 EC50 (uM)) and in test [2] (setting [4]) were 0.0407 µM and more than 10 µM, respectively.
For `C[C@H](Oc1cc(C(=O)NC(C(=O)N2CCC2)C(C)(C)C)ncc1C1CC1)C(F)(F)F` (stereo partly drawn) [Example 202, N-[1-(azetidin-1-yl)-3,3-dimethyl-1-oxobutan-2-yl]-5-cyclopropyl-4-[(2S)-1,1,1-trifluoropropan-2-yl]oxypyridine-2-carboxamide], the figures for the EC50 in test [1] (read-out: Human CB2 EC50) and in test [2] (setting [3]) were 0.0022 µM and more than 10 µM, respectively.
Turning to `Cc1nc(C(C)(CC2CC2)NC(=O)c2cc(OCC(F)(F)F)c(C3CCC3)cn2)no1` (single isomer, unassigned) [Example 117, 5-cyclobutyl-N-[1-cyclopropyl-2-(5-methyl-1,2,4-oxadiazol-3-yl)propan-2-yl]-4-(2,2,2-trifluoroethoxy)pyridine-2-carboxamide], the EC50 was 0.0024 µM in test [1] (Human CB2 EC50 (uM)) and more than 10 µM in test [2] (setting [5]).
In the case of `CNC(=O)C(C)(NC(=O)c1cc(OCC(F)(F)F)c(C2CC2)cn1)c1noc(C)n1` (single isomer, unassigned) [Example 187, 5-cyclopropyl-N-[1-(methylamino)-2-(5-methyl-1,2,4-oxadiazol-3-yl)-1-oxopropan-2-yl]-4-(2,2,2-trifluoroethoxy)pyridine-2-carboxamide], the EC50 in test [1] (Human CB2 EC50 (uM)) was 0.416 µM; in test [2] (setting [4]) it was more than 10 µM.
`Cc1nc(C(C)(NC(=O)c2cc(OCC(F)(F)F)c(C3CC3)cn2)C(=O)N2CCC2)no1` (stereo not drawn) [Example 182, N-[1-(azetidin-1-yl)-2-(5-methyl-1,2,4-oxadiazol-3-yl)-1-oxopropan-2-yl]-5-cyclopropyl-4-(2,2,2-trifluoroethoxy)pyridine-2-carboxamide]: the values for the EC50 in test [1] (read-out: Human CB2 EC50) and in test [2] (setting [3]) were 0.0054 µM and more than 10 µM, respectively.
The like results for `CCN(C(=O)c1cc(OCC(F)(F)F)c(C2CC2)cn1)C(C)(C)C` [Example 107, 5-Cyclopropyl-4-(2,2,2-trifluoro-ethoxy)-pyridine-2-carboxylic acid tert-butyl-ethyl-amide] were, in that order, 0.0822 µM and more than 10 µM.
Turning to `NC(=O)CC1(NC(=O)c2cc(OCC(F)(F)F)c(N3CC(F)(F)C3)cn2)CS(=O)(=O)C1` [Example 264, N-[3-(2-amino-2-oxoethyl)-1,1-dioxothietan-3-yl]-5-(3,3-difluoroazetidin-1-yl)-4-(2,2,2-trifluoroethoxy)pyridine-2-carboxamide], the results for the EC50 in test [1] (read-out: Human CB2 EC50) and in test [2] (setting [3]) were 0.178 µM and more than 10 µM, respectively.
The like results for `CNC(=O)C(C)(CC1CC1)NC(=O)c1cc(OCC(F)(F)F)c(C2CC2)cn1` (stereo not drawn) [Example 189, 5-cyclopropyl-N-[3-cyclopropyl-2-methyl-1-(methylamino)-1-oxopropan-2-yl]-4-(2,2,2-trifluoroethoxy)pyridine-2-carboxamide] were, in that order, 0.292 µM and more than 10 µM.
On the same counts, the results for `Cn1nnc(C(NC(=O)c2cc(OCC(F)(F)F)c(C3CC3)cn2)C(C)(C)C)n1` (stereo not drawn) [Example 163, 5-cyclopropyl-N-[2,2-dimethyl-1-(2-methyltetrazol-5-yl)propyl]-4-(2,2,2-trifluoroethoxy)pyridine-2-carboxamide] are 0.0045 µM and more than 10 µM.
Regarding `Cn1nnc(C(NC(=O)c2cc(OCC(F)(F)F)c(C3CC3)cn2)C(C)(C)C)n1` (single isomer, unassigned) [Example 210, 5-cyclopropyl-N-[2,2-dimethyl-1-(2-methyltetrazol-5-yl)propyl]-4-(2,2,2-trifluoroethoxy)pyridine-2-carboxamide], the EC50 in test [1] (Human CB2 EC50 (uM)) was 0.0042 µM; in test [2] (setting [5]) it was more than 10 µM.
`Cc1nc(C(C)(CC2CC2)NC(=O)c2cc(OCCF)c(C3CC3)cn2)no1` (stereo not drawn) [Example 146, 5-cyclopropyl-N-[1-cyclopropyl-2-(5-methyl-1,2,4-oxadiazol-3-yl)propan-2-yl]-4-(2-fluoroethoxy)pyridine-2-carboxamide]: the figures for the EC50 in test [1] (read-out: Human CB2 EC50) and in test [2] (setting [3]) were 0.0018 µM and more than 10 µM, respectively.
For the molecule `Cc1nnc(C(C)(CC2CC2)NC(=O)c2cc(OCC(F)(F)F)c(C3CC3)cn2)o1` (single isomer, unassigned) [Example 185, 5-cyclopropyl-N-[1-cyclopropyl-2-(5-methyl-1,3,4-oxadiazol-2-yl)propan-2-yl]-4-(2,2,2-trifluoroethoxy)pyridine-2-carboxamide], the results for the EC50 in test [1] (Human CB2 EC50 (uM)) and in test [2] (setting [5]) were 0.0302 µM and more than 10 µM, respectively.
For the molecule `Cc1nc(C(C)(NC(=O)c2cc(O[C@H](C)C(F)(F)F)c(C3CC3)cn2)C2CC2)no1` (single isomer, unassigned; epimer a) [Example 72], the results for the EC50 in test [1] (read-out: Human CB2 EC50) and in test [2] (setting [3]) were 0.0027 µM and 0.19 µM, respectively.
The like results for `CC(CC(N)=O)(NC(=O)c1cc(OCC(F)(F)F)c(C2CC2)cn1)C1CC1` (stereo not drawn) [Example 230, N-(4-amino-2-cyclopropyl-4-oxobutan-2-yl)-5-cyclopropyl-4-(2,2,2-trifluoroethoxy)pyridine-2-carboxamide] were, in that order, 0.0009 µM and more than 10 µM.
For `CC(C)(C)C(NC(=O)c1cc(OCC(F)(F)F)c(C2CC2)cn1)c1nccs1` (stereo not drawn) [Example 50, 5-Cyclopropyl-4-(2,2,2-trifluoro-ethoxy)-pyridine-2-carboxylic acid (2,2-dimethyl-1-thiazol-2-yl-propyl)-amide], the EC50 in test [1] (read-out: Human CB2 EC50) is 0.0058 µM; in test [2] (setting [3]) it was more than 10 µM.
As to `Cc1nc(C(C)(NC(=O)c2cc(O[C@@H](C)C(F)(F)F)c(C3CC3)cn2)C2CC2)no1` (single isomer, unassigned; epimer b) [Example 69], the EC50 in test [1] (read-out: Human CB2 EC50) was 0.00025 µM; in test [2] (setting [3]) it was 0.015 µM.
The like results for `CC(C)(C)C(NC(=O)c1cc(OCC(F)(F)F)c(Cl)cn1)c1nccs1` (stereo not drawn) [Example 38, 5-Chloro-4-(2,2,2-trifluoro-ethoxy)-pyridine-2-carboxylic acid (2,2-dimethyl-1-thiazol-2-yl-propyl)-amide] were, in that order, 0.0408 µM and more than 10 µM.
Regarding `Cc1nc(C(C)(NC(=O)c2cc(O[C@H](C)C(F)(F)F)c(C3CC3)cn2)C2CC2)no1` (single isomer, unassigned; epimer b) [Example 73], the EC50 is 0.00025 µM in test [1] (read-out: Human CB2 EC50) and 0.017 µM in test [2] (setting [3]).
On the same counts, the results for `CC(C)[C@](C)(CO)NC(=O)c1cc(OCC2CCC2)c(Cl)cn1` [Example 12, 5-Chloro-4-cyclobutylmethoxy-pyridine-2-carboxylic acid ((R)-1-hydroxymethyl-1,2-dimethyl-propyl)-amide] are 0.0092 µM and more than 10 µM.
The like results for `CN(C(=O)c1cc(-c2cccc(Cl)c2)ccn1)C(C)(C)C` [Example 86, 4-(3-Chloro-phenyl)-pyridine-2-carboxylic acid tert-butyl-methyl-amide] were, in that order, 0.145 µM and more than 10 µM.
On the same counts, the results for `CC(C)C(CCO)NC(=O)c1cc(OCC2CC2)c(Cl)cn1` (stereo not drawn) [Example 18, 5-Chloro-4-cyclopropylmethoxy-pyridine-2-carboxylic acid [1-(2-hydroxy-ethyl)-2-methyl-propyl]-amide] are 0.149 µM and more than 10 µM.
On to `CNC(=O)CC1(NC(=O)c2cc(OCC(F)(F)F)c(C3(F)CCC3)cn2)CS(=O)(=O)C1` [Example 285, 5-(1-fluorocyclobutyl)-N-[3-[2-(methylamino)-2-oxoethyl]-1,1-dioxothietan-3-yl]-4-(2,2,2-trifluoroethoxy)pyridine-2-carboxamide], for which the concentration giving a half-maximal response (EC50) is 1.44 µM in test [1] (read-out: Human CB2 EC50) and more than 10 µM in test [2] (setting [3]).
For `Cc1nc(C(C)(CC2CC2)NC(=O)c2cc(OC(C)CF)c(C3CC3)cn2)no1` (single isomer, unassigned) [Example 290, 5-cyclopropyl-N-(1-cyclopropyl-2-(5-methyl-1,2,4-oxadiazol-3-yl)propan-2-yl)-4-(1-fluoropropan-2-yloxy)picolinamide], the EC50 in test [1] (read-out: Human CB2 EC50) was 0.0006 µM; in test [2] (setting [5]), more than 10 µM.

The values are drawn from patent US9409866B2, “Pyridine-2-amides useful as CB2 agonists” (Hoffmann-La Roche Inc., priority 2012, dated 2016).
